Here are results for 31 compounds from patent publication US20040077674A1, “Mappicine analogs, intermediates in the synthesis of mappicine analogs and methods of synthesis of mappicine analogs” (priority 2002, published 2004).

For assay [1], the target named is T1, RNase H activity of HIV reverse transcriptase (Human immunodeficiency virus type 1 group M subtype B, UniProt P03366).
T1 construct: 2.5 nM of the p51/p66 RT heterodimer in the assay; made in house
Put plainly: Fluorescence (FRET)-based RNase H assay of HIV reverse transcriptase. The following applies: 10 μM inhibitor concentration, activity in presence / in absence of analog x 100. The format is biochemical, HIV-1. The method, then:
Recently, a fluorescence-based assay to perform screens in search of HIV RNase H inhibitors has been developed. The assay, which is carried out in 96-well microplates and is adaptable to robotics, is the first high-throughput screen for RNase H and is described in further detail in the Experimental section. HIV-1 RT and human RNase H were cloned, and thus comparative analysis of inhibitor action could be conducted simultaneously.
The assay for RNase H activity of HIV reverse transcriptase was the fluorescence-based assay described in detail in the Experimental section and discussed in U.S. Provisional Patent Application Serial No. 60/318,359. Assays were carried out in the absence and in the presence of mappicine analogs (10 μM or 20 μM final concentration). The results are reported as % residual activity, which is the RNase H activity of the enzyme in the presence of the mappicine analog divided by the RNase H activity of the enzyme in the absence of the mappicine analog, multiplied by 100. Alternatively, the results are reported as % inhibition, which is calculated as the ratio of the RNase H activity of the enzyme in the presence of the mappicine analog to the enzyme activity in the absence of the mappicine analog, multiplied by 100, and then subtracting this number from 100.
Assay for Ribonuclease H Activity Based on Fluorescence Resonance Energy Transfer (FRET)
Preparation of the Fluorophore-RNA/Quencher-DNA Hybrid Duplex Substrate.
The RNA/DNA hybrid duplex substrate for use in the assay comprises an RNA oligonucleotide of sequence 5′-GAU CUG AGC CUG GGA GCU-3′, modified at the 3′-end with Aminolink-2 and derivatized with fluorescein isothiocyanate, to provide a modified RNA oligonucleotide of the sequence 5′-GAU CUG AGC CUG GGA GCU-fluorescein-3′, annealed to a complementary DNA oligonucleotide of the sequence 5′-AGC TCC CAG GCT CAG ATC-3′ modified at the 5′-end with Aminolink-2 and derivatized with the FRET acceptor DABCYL succinimidyl ester, to provide a modified DNA oligonucleotide of the sequence 5′-DABCYL-AGC TCC CAG GCT CAG ATC-3′.
To prepare the 3′-fluorescein-RNA/5′-DABCYL-DNA hybrid duplex substrate, a known amount of 3′-fluorescein-RNA was dissolved in 20 mM Tris buffer (pH 8.0, 37° C.) to provide a final concentration of 5 μM. Two equivalents of the 5′-DABCYL-DNA oligonucleotide were added, and the mixture was heated to 90° C. for 5 min and cooled slowly to room temperature to allow duplex formation. The positioning of the fluorescein donor at the 3′-end of the RNA oligonucleotide and the DABCYL acceptor at the 5′-end of the DNA oligonucleotide provides a very close proximity of the donor and acceptor that results in a very intense quenching of the fluorescein emission in the intact RNA/DNA hybrid duplex substrate due to the spectral overlap of the fluorescence emission of fluorescein with the absorption spectrum of DABCYL. In addition, DABCYL is non-fluorescent, and thus cannot contribute any light emission. Both of these factors result in a very low background and provide a high signal-to-noise in the assay measurements. The ratio of the donor fluorescence in the absence and in the presence of its quencher is approximately fifteen-fold.
Microplate Assay Protocol for the Measurement of RNase H Activity Using the RNA/IDNA Hybrid Duplex Substrate.
Reaction assay mixtures contained 5 μl of a stock solution of 2.5 μM RNA/DNA hybrid duplex substrate added to 85 μl of assay buffer (50 mM Tris, pH 8.0, 37° C., containing 60 mM KCl and 2.5 mM MgCl2), prepared in the wells of a 96-well fluorescence microtiter plate, and warmed to 37° C. using the temperature control of the SpectraMax Gemini XS microplate spectrofluorometer (Molecular Devices). Reactions were started by the addition of 5 μl of a solution of recombinant HIV-1 reverse transcriptase (usually providing a final concentration of 2.5 nM of the p51/p66 RT heterodimer in the assay), and mixing using the automatic mixing function of the microplate spectrofluorometer. […]

Assay [2] has as its target T2, RNA-dependent DNA polymerase activity of HIV reverse transcriptase (Human immunodeficiency virus type 1 group M subtype B, UniProt P03366).
T2 construct: made in house
Put plainly: RNA-dependent DNA polymerase activity assay of HIV reverse transcriptase. The settings on record: 10 μM inhibitor concentration, activity in presence / in absence of analog x 100. It is filed as biochemical, HIV-1. The method, then: In separate representative assays, mappicine analogs were tested for their ability to inhibit the RNA-dependent DNA polymerase activity of HIV reverse transcriptase and for their ability to inhibit the RNase H activity of HIV reverse transcriptase. The assay for RNA-dependent DNA polymerase activity is discussed in Borkow, G. et al., “Inhibition of the Ribonuclease H and DNA Polymerase Activities of HIV-1 Reverse Transcriptase by N-(4-tert-Butylbenzoyl)-2-hydroxy-1-naphthaldehyde Hydrazone,” Biochemistry 1997, 36, 3179-3185, a copy of which is attached hereto and the disclosure of which is incorporated herein by reference. Assays were carried out in the absence and in the presence of mappicine analogs (10 μM final concentration). The results are reported as % residual activity, which is the RNA-dependent DNA polymerase activity of the enzyme in the presence of the mappicine analog divided by the RNA-dependent activity of the enzyme in the absence of the mappicine analog, multiplied by 100.

Consider `CCCCCCc1c2c(nc3ccccc13)-c1cc(C(O)CCC3CCCCC3)c(C)c(=O)n1C2` (centres unmarked) [5 (8Aδ)], for which the “Residual activity (%) RNase H” value in assay [1] amounted to 89%. For the same compound, the “Residual activity (%) Polymerase” value in assay [2] was 72%.
For `Cc1c(C(O)CCC2CCCCC2)cc2n(c1=O)Cc1c-2nc2ccc(F)cc2c1[Si](C)(C)C` (centres unmarked) [5 (5Bδ)], in that order: 103% and 78%.
The matching figures for `CCCCCCc1c2c(nc3ccc(C)cc13)-c1cc(C(O)CCC3CCCCC3)c(C)c(=O)n1C2` (centres unmarked) [5 (8Cδ)]: 72% and 73%.
The matching figures for `CCC(=O)c1cc2n(c(=O)c1C)Cc1c-2nc2ccc(F)cc2c1[Si](C)(C)C(C)(C)C` [5 (4Bακ)]: 77% and 42%.
`Cc1c(C(O)CCC2CCCCC2)cc2n(c1=O)Cc1c-2nc2ccc(F)cc2c1[Si](C)(C)C(C)(C)C` (centres unmarked) [5 (4Bδ)]: the “Residual activity (%) RNase H” value in assay [1] was found to be 90%. Also, in assay [2], the “Residual activity (%) Polymerase” value amounted to 44%.
For `CCCCCCc1c2c(nc3ccccc13)-c1cc(C(=O)CC)c(C)c(=O)n1C2` [5 (8Aακ)], in that order: 77% and 53%.
The matching figures for `COc1ccc2nc3c(c(-c4ccccc4)c2c1)Cn1c-3cc(C(O)CCC2CCCCC2)c(C)c1=O` (centres unmarked) [5 (3Dδ)]: 67% and 60%.
For `Cc1c(C(=O)C(C)(C)C)cc2n(c1=O)Cc1c-2nc2ccc(F)cc2c1[Si](C)(C)C(C)(C)C` [5 (4Bβκ)], in that order: 79% and 82%.
For the compound `CCCCCCc1c2c(nc3ccccc13)-c1cc(C(=O)CCC3CCCCC3)c(C)c(=O)n1C2` [5 (8Aδκ)], the “Residual activity (%) RNase H” value in assay [1] is recorded as 97%. For the same compound, in assay [2], the “Residual activity (%) Polymerase” value was determined as 63%.
The matching figures for `Cc1ccc2nc3c(c(-c4ccccc4)c2c1)Cn1c-3cc(C(=O)C(C)(C)C)c(C)c1=O` [5 (3Cβκ)]: 96% and 63%.
The matching figures for `CCC(=O)c1cc2n(c(=O)c1C)Cc1c-2nc2ccc(OC)cc2c1[Si](C)(C)C(C)(C)C` [5 (4Dακ)]: 77% and 80%.
The matching figures for `COc1ccc2nc3c(c([Si](C)(C)C)c2c1)Cn1c-3cc(C(O)CCC2CCCCC2)c(C)c1=O` (centres unmarked) [5 (5Dδ)]: 96% and 57%.
As to `COc1ccc2nc3c(c([Si](C)(C)C)c2c1)Cn1c-3cc(C(=O)C(C)(C)C)c(C)c1=O` [5 (5Dβκ)], the “Residual activity (%) RNase H” value in assay [1] turned out to be 86%. Besides, the “Residual activity (%) Polymerase” value in assay [2] came to 64%.
Regarding `Cc1ccc2nc3c(c([Si](C)(C)C)c2c1)Cn1c-3cc(C(O)C(C)(C)C)c(C)c1=O` (centres unmarked) [5 (5Cβ)], the “Residual activity (%) RNase H” value in assay [1] was 80%. Further, the “Residual activity (%) Polymerase” value in assay [2] is reported as 72%.
For `COc1ccc2nc3c(c([Si](C)(C)C(C)(C)C)c2c1)Cn1c-3cc(C(O)C(C)(C)C)c(C)c1=O` (centres unmarked) [5 (4Dβ)], in that order: 91% and 47%.
For `Cc1c(C(O)C(C)(C)C)cc2n(c1=O)Cc1c-2nc2ccc(F)cc2c1[Si](C)(C)C` (centres unmarked) [5 (5Bβ)], in that order: 102% and 74%.
For `CCC(=O)c1cc2n(c(=O)c1C)Cc1c-2nc2ccc(F)cc2c1-c1ccccc1` [5 (3Bακ)], in that order: 94% and 100%.
In the case of `CCC(O)c1cc2n(c(=O)c1C)Cc1c-2nc2ccccc2c1[Si](C)(C)C` (centres unmarked) [5 (AG 1M)], the “Residual activity (%) RNase H” value in assay [1] (10 µM) is 73%. Also, the “Residual activity (%) Polymerase” value in assay [2] (10 µM) is 89%.
Take `COc1ccc2nc3c(c([Si](C)(C)C(C)(C)C)c2c1)Cn1c-3cc(C(O)Cc2ccccc2)c(C)c1=O` (centres unmarked) [5 (4Dε)]: in assay [1], the “Residual activity (%) RNase H” value is given as 76%. Moreover, in assay [2], the “Residual activity (%) Polymerase” value is reported as 49%.
For `COc1ccc2nc3c(c([Si](C)(C)C)c2c1)Cn1c-3cc(C(O)Cc2ccccc2)c(C)c1=O` (centres unmarked) [5 (5Dε)], in assay [1], the “Residual activity (%) RNase H” value was 70%. The “Residual activity (%) Polymerase” value in assay [2] came to 48%.
The matching figures for `CCC(O)c1cc2n(c(=O)c1C)Cc1c-2nc2ccc(F)cc2c1[Si](C)(C)C(C)(C)C` (centres unmarked) [5 (4Bα)]: 108% and 98%.
For “2-Acetoxy-12-ethyl-7-(1-hydroxypropyl)-8-methyl-1H-indolizino [1,2-b]quinolin-9-one [5 (AG 7M)]”, the “Residual activity (%) RNase H” value in assay [1] was 63%. In addition, the “Residual activity (%) Polymerase” value in assay [2] is given as 99%.
For `Cc1ccc2nc3c(c(-c4ccccc4)c2c1)Cn1c-3cc(C(O)Cc2ccccc2)c(C)c1=O` (centres unmarked) [5 (3Cε)], the “Residual activity (%) RNase H” value in assay [1] is given as 101%. In addition, the “Residual activity (%) Polymerase” value in assay [2] was found to be 76%.
For `COc1ccc2nc3c(c([Si](C)(C)C(C)(C)C)c2c1)Cn1c-3cc(C(=O)CCC2CCCCC2)c(C)c1=O` [5 (4Dδκ)], in assay [1], the “Residual activity (%) RNase H” value worked out at 83%. For the same compound, the “Residual activity (%) Polymerase” value in assay [2] was 50%.
With `COc1ccc2nc3c(c(-c4ccccc4)c2c1)Cn1c-3cc(C(O)Cc2ccccc2)c(C)c1=O` (centres unmarked) [5 (3Dε)], in assay [1], the “Residual activity (%) RNase H” value is reported as 79%. In addition, in assay [2], the “Residual activity (%) Polymerase” value is 61%.
The matching figures for `CCCCCCc1c2c(nc3ccccc13)-c1cc(C(=O)C(C)(C)C)c(C)c(=O)n1C2` [5 (8Aβκ)]: 96% and 76%.
The matching figures for `Cc1c(C(O)Cc2ccccc2)cc2n(c1=O)Cc1c-2nc2ccc(F)cc2c1-c1ccccc1` (centres unmarked) [5 (3Bε)]: 91% and 28%.
As for `COc1ccc2nc3c(c(-c4ccccc4)c2c1)Cn1c-3cc(C(=O)CCC2CCCCC2)c(C)c1=O` [5 (3Dδκ)], the “Residual activity (%) RNase H” value in assay [1] was found to be 97%. For the same compound, in assay [2], the “Residual activity (%) Polymerase” value turned out to be 81%.
For `Cc1ccc2nc3c(c([Si](C)(C)C)c2c1)Cn1c-3cc(C(O)Cc2ccccc2)c(C)c1=O` (centres unmarked) [5 (5Cε)], in that order: 93% and 87%.
For `CCCCCCc1c2c(nc3ccccc13)-c1cc(C(O)C(C)(C)C)c(C)c(=O)n1C2` (centres unmarked) [5 (8Aβ)], in that order: 91% and 103%.
Take `Cc1ccc2nc3c(c([Si](C)(C)C)c2c1)Cn1c-3cc(C(O)CCC2CCCCC2)c(C)c1=O` (centres unmarked) [5 (5Cδ)]: in assay [1], the “Residual activity (%) RNase H” value was 103%. Further, the “Residual activity (%) Polymerase” value in assay [2] is listed as 41%.
